Measurements taken from ChEMBL document CHEMBL4483862, “Open-source discovery of chemical leads for next-generation chemoprotective antimalarials” (2018).

System: Plasmodium berghei
Assay: Luciferase/luciferin-expressing antifolate-resistant parasites were used to infect a culture of HepG2 cells that were pre-incubated with compounds. Infected hepatocytes emit light due to the luciferase reaction. Assay results are presented as the percent inhibition of light emission compared to control. […]
Assay type: functional
Details: sporozoite; for IC90: read-out: LUCIFERASE INFECTION ASSAY - IC90

Row | Structure (SMILES) | IC90 [µM] | other results
1 | Cc1ccc(S(=O)(=O)Nc2cccc3ncccc23)s1 | 3.72 | IC50 (HEPG2TOX_HILL_SLOPE 1.87, HEPG2TOX_R_SQUARED 0.954, PBLUC_HILL_SLOPE 8.9, PBLUC_R_SQUARED 0.583, read-out: LUCIFERASE INFECTION ASSAY - IC50): 2.91 µM
2 | O=C(Nc1cc(Cl)cc(Cl)c1)c1cc(Cl)ccc1O | 1.1 | IC50 (HEPG2TOX_HILL_SLOPE 1.87, HEPG2TOX_R_SQUARED 0.915, PBLUC_HILL_SLOPE 2.8, PBLUC_R_SQUARED 0.713, read-out: LUCIFERASE INFECTION ASSAY - IC50): 0.502 µM
3 | CO/N=C(/CS(=O)(=O)c1ccc(Cl)cc1)c1ccc(Cl)cc1 | 3.25 | IC50 (HEPG2TOX_HILL_SLOPE 1.88, HEPG2TOX_R_SQUARED 0.932, PBLUC_HILL_SLOPE 2.15, PBLUC_R_SQUARED 0.742, read-out: LUCIFERASE INFECTION ASSAY - IC50): 1.17 µM
4 | CN(C)c1ccc(-c2ccc3nnc(-c4ccccc4)n3c2)cc1 | 4.59 | IC50 (HEPG2TOX_HILL_SLOPE 1.89, HEPG2TOX_R_SQUARED 0.955, PBLUC_HILL_SLOPE 2.66, PBLUC_R_SQUARED 0.575, read-out: LUCIFERASE INFECTION ASSAY - IC50): 2.01 µM
5 | COc1cc(C)ccc1Oc1nc2cc(C)nn2c2ccccc12 | > 10 | IC50 (HEPG2TOX_HILL_SLOPE 1.87, HEPG2TOX_R_SQUARED 0.892, read-out: LUCIFERASE INFECTION ASSAY - IC50): > 10 µM
6 | CC(=O)Nc1ccc(-c2cnc3ccc(-c4cccs4)nn23)cc1 | 2.75 | IC50 (HEPG2TOX_HILL_SLOPE 1.84, HEPG2TOX_R_SQUARED 0.871, PBLUC_HILL_SLOPE 5.5, PBLUC_R_SQUARED 0.751, read-out: LUCIFERASE INFECTION ASSAY - IC50): 1.84 µM
7 | Cc1nccc(-c2cccc(N/N=C(\C#N)S(=O)(=O)c3ccccn3)c2)n1 | 8.23 | IC50 (HEPG2TOX_HILL_SLOPE 1.84, HEPG2TOX_R_SQUARED 0.959, PBLUC_HILL_SLOPE 1.78, PBLUC_R_SQUARED 0.641, read-out: LUCIFERASE INFECTION ASSAY - IC50): 2.4 µM
8 | Cc1nc(NCc2ccc(-n3ccnc3)nc2)c2c(-c3ccccc3)csc2n1 | 4.03 | IC50 (HEPG2TOX_HILL_SLOPE 1.9, HEPG2TOX_R_SQUARED 0.893, PBLUC_HILL_SLOPE 8.93, PBLUC_R_SQUARED 0.705, read-out: LUCIFERASE INFECTION ASSAY - IC50): 3.15 µM
9 | COc1cccc(C(=O)Nc2nc3ccc(C)cn3c2C(=O)NC2CCCC2)c1 | 3.16 | IC50 (HEPG2TOX_HILL_SLOPE 1.86, HEPG2TOX_R_SQUARED 0.913, PBLUC_HILL_SLOPE 11.1, PBLUC_R_SQUARED 0.319, read-out: LUCIFERASE INFECTION ASSAY - IC50): 2.59 µM
10 | CCCCc1ccc(C(=O)Nc2nc3ccc(C)cn3c2C(=O)NCCC)cc1 | 3.18 | IC50 (HEPG2TOX_HILL_SLOPE 1.88, HEPG2TOX_R_SQUARED 0.855, PBLUC_HILL_SLOPE 16.2, PBLUC_R_SQUARED 0.661, read-out: LUCIFERASE INFECTION ASSAY - IC50): 2.78 µM
11 | Cc1nn2c(nc(N3CCCC3)c3ccccc32)c1C=C1C(=O)NC(=S)NC1=O | 5.31 | IC50 (HEPG2TOX_HILL_SLOPE 1.87, HEPG2TOX_R_SQUARED 0.941, PBLUC_HILL_SLOPE 2.44, PBLUC_R_SQUARED 0.519, read-out: LUCIFERASE INFECTION ASSAY - IC50): 2.16 µM
12 | c1csc(CNc2ccc3ncc(-c4ccc5[nH]ccc5c4)n3n2)c1 | > 9.55 | IC50 (HEPG2TOX_HILL_SLOPE 1.89, HEPG2TOX_R_SQUARED 0.971, PBLUC_HILL_SLOPE 2.39, PBLUC_R_SQUARED 0.271, read-out: LUCIFERASE INFECTION ASSAY - IC50): 4.86 µM
13 | CCO/C=N\C1=C(C#N)C(c2ccc(OC)cc2)c2ccc3ccccc3c2O1 (configuration not stated) | > 8.58 | IC50 (HEPG2TOX_HILL_SLOPE 1.86, HEPG2TOX_R_SQUARED 0.624, read-out: LUCIFERASE INFECTION ASSAY - IC50): > 8.58 µM
14 | CCOC(=O)CCc1c(C)[nH]n(-c2nc3ccccc3[nH]2)c1=O | 3.53 | IC50 (HEPG2TOX_HILL_SLOPE 1.88, HEPG2TOX_R_SQUARED 0.728, PBLUC_HILL_SLOPE 14.3, PBLUC_R_SQUARED 0.719, read-out: LUCIFERASE INFECTION ASSAY - IC50): 3.03 µM
15 | CC(=O)c1ccccc1NC(=O)COC(=O)c1c2c(nc3ccccc13)CCC2 | > 10 | IC50 (HEPG2TOX_HILL_SLOPE 1.9, HEPG2TOX_R_SQUARED 0.384, PBLUC_HILL_SLOPE 3.75, PBLUC_R_SQUARED 0.218, read-out: LUCIFERASE INFECTION ASSAY - IC50): 6.16 µM
16 | CCN(CC)CCN1COc2c(cc(Cl)c3cccnc23)C1 | 4.94 | IC50 (HEPG2TOX_HILL_SLOPE 1.86, HEPG2TOX_R_SQUARED 0.951, PBLUC_HILL_SLOPE 8.52, PBLUC_R_SQUARED 0.457, read-out: LUCIFERASE INFECTION ASSAY - IC50): 3.81 µM

Row | Structure (SMILES) | IC90 [µM] | other results
17 | O=C(Nc1ccc(-c2nc3ccccc3[nH]2)cc1)c1ccc(NC(=O)C2CC2)s1 | 0.674 | IC50 (HEPG2TOX_HILL_SLOPE 1.89, HEPG2TOX_R_SQUARED 0.991, PBLUC_HILL_SLOPE 4.29, PBLUC_R_SQUARED 0.909, read-out: LUCIFERASE INFECTION ASSAY - IC50): 0.404 µM
18 | Clc1ccc(-c2cn3c(-c4ccccc4)cnc3cn2)c(Cl)c1 | 3.69 | IC50 (HEPG2TOX_HILL_SLOPE 1.88, HEPG2TOX_R_SQUARED 0.996, PBLUC_HILL_SLOPE 1.95, PBLUC_R_SQUARED 0.542, read-out: LUCIFERASE INFECTION ASSAY - IC50): 1.19 µM
19 | Cn1cc(-c2cnc3cnc(-c4ccsc4)cn23)cn1 | > 11.7 | IC50 (HEPG2TOX_HILL_SLOPE 1.9, HEPG2TOX_R_SQUARED 0.409, PBLUC_HILL_SLOPE 1.49, PBLUC_R_SQUARED 0.155, read-out: LUCIFERASE INFECTION ASSAY - IC50): > 11.7 µM
20 | COc1ccc(-n2nc(C)c3c(=O)cc(C(C)(C)C)[nH]c32)cc1 | 5.81 | IC50 (HEPG2TOX_HILL_SLOPE 1.9, HEPG2TOX_R_SQUARED 0.976, PBLUC_HILL_SLOPE 7.24, PBLUC_R_SQUARED 0.294, read-out: LUCIFERASE INFECTION ASSAY - IC50): 4.29 µM
21 | O=c1nc(-c2ccc3c(c2)OCCO3)[nH]c2sc(-c3ccccc3)cc12 | 4.31 | IC50 (HEPG2TOX_HILL_SLOPE 1.86, HEPG2TOX_R_SQUARED 0.902, PBLUC_HILL_SLOPE 1.77, PBLUC_R_SQUARED 0.594, read-out: LUCIFERASE INFECTION ASSAY - IC50): 1.25 µM
22 | CCOC(=O)c1ccc(NC(=S)N/N=C/c2ccccc2O)cc1 | 5.71 | IC50 (HEPG2TOX_HILL_SLOPE 1.84, HEPG2TOX_R_SQUARED 0.879, PBLUC_HILL_SLOPE 113, PBLUC_R_SQUARED 0.459, read-out: LUCIFERASE INFECTION ASSAY - IC50): 5.6 µM
23 | Cc1ccnc(NC(=O)C2CC(=O)N(c3ccc(C)c(C)c3)C2)c1 (configuration not stated) | 4.04 | IC50 (HEPG2TOX_HILL_SLOPE 1.86, HEPG2TOX_R_SQUARED 0.878, PBLUC_HILL_SLOPE 11.1, PBLUC_R_SQUARED 0.462, read-out: LUCIFERASE INFECTION ASSAY - IC50): 3.31 µM
24 | CC1CC(C)CN(Cc2ccccc2CNC(=O)Nc2nnc(C3CC3)s2)C1 (configuration not stated) | > 10 | IC50 (HEPG2TOX_HILL_SLOPE 1.87, HEPG2TOX_R_SQUARED 0.778, PBLUC_HILL_SLOPE 3.71, PBLUC_R_SQUARED 0.683, read-out: LUCIFERASE INFECTION ASSAY - IC50): 6.46 µM
25 | Cc1cccc(C(=O)N[C@H](C(=O)Nc2nc(-c3ccccn3)cs2)C(C)C)c1 | 3.94 | IC50 (HEPG2TOX_HILL_SLOPE 1.86, HEPG2TOX_R_SQUARED 0.615, PBLUC_HILL_SLOPE 3.31, PBLUC_R_SQUARED 0.556, read-out: LUCIFERASE INFECTION ASSAY - IC50): 2.03 µM
26 | O=C(NCCO)c1cccc(-c2ccc3ncc(-c4cccc(CO)c4)n3n2)c1 | 3.67 | IC50 (HEPG2TOX_HILL_SLOPE 1.86, HEPG2TOX_R_SQUARED 0.81, PBLUC_HILL_SLOPE 12.7, PBLUC_R_SQUARED 0.352, read-out: LUCIFERASE INFECTION ASSAY - IC50): 3.09 µM
27 | CC(=O)c1cccc(-c2cnc3ccc(-c4cccc(C(=O)NCCO)c4)nn23)c1 | 2.32 | IC50 (HEPG2TOX_HILL_SLOPE 1.87, HEPG2TOX_R_SQUARED 0.674, PBLUC_HILL_SLOPE 4.19, PBLUC_R_SQUARED 0.651, read-out: LUCIFERASE INFECTION ASSAY - IC50): 1.38 µM
28 | Cc1ccc(-c2nc(COC(=O)Cc3ccccc3[N+](=O)[O-])cs2)cc1 | > 10 | IC50 (HEPG2TOX_HILL_SLOPE 1.86, HEPG2TOX_R_SQUARED 0.968, PBLUC_HILL_SLOPE 3.1, PBLUC_R_SQUARED 0.491, read-out: LUCIFERASE INFECTION ASSAY - IC50): 6.23 µM
29 | Cc1sc2nc(-c3cccnc3)nc(NCCNc3ccccn3)c2c1C | 1.71 | IC50 (HEPG2TOX_HILL_SLOPE 1.88, HEPG2TOX_R_SQUARED 0.918, PBLUC_HILL_SLOPE 8.99, PBLUC_R_SQUARED 0.794, read-out: LUCIFERASE INFECTION ASSAY - IC50): 1.34 µM
30 | Cc1cc(C(=O)Cn2cnc3ccccc3c2=O)c(C)n1-c1ccccc1F | > 10 | IC50 (HEPG2TOX_HILL_SLOPE 1.86, HEPG2TOX_R_SQUARED 0.464, PBLUC_HILL_SLOPE 1.21, PBLUC_R_SQUARED 0.574, read-out: LUCIFERASE INFECTION ASSAY - IC50): 3.66 µM
31 | CNC(=O)c1csc(C(O)c2cccc(C(F)(F)F)c2)n1 (configuration not stated) | 3.81 | IC50 (HEPG2TOX_HILL_SLOPE 1.87, HEPG2TOX_R_SQUARED 0.885, PBLUC_HILL_SLOPE 18.2, PBLUC_R_SQUARED 0.279, read-out: LUCIFERASE INFECTION ASSAY - IC50): 3.38 µM
